The source of these data is US20090143293A1, “Peptide inhibitors of protein kinase C gamma for pain management” (priority 2002, published 2009).

Entries after “also recorded” stand apart in the source; their conditions may differ. Like-named read-outs stand apart in the source and are kept apart here.

Assay [1] deals with allodynia and/or hyperalgesia. The note with it: capsaicin model; cited from earlier work.
For assay [2], the system named is allodynia and/or hyperalgesia. As to conditions: formalin model; cited from earlier work.
The test system of assay [3] is formalin-induced spontaneous pain behaviors. In words: Formalin-induced nociception in rat pups, peptide given before formalin (Example 1). In kind it is in vivo, rat (Sprague-Dawley pups). The protocol:
In the study detailed in Example 1, the peptide identified herein as SEQ ID NO:4 was administered to rat pups on postnatal days 7, 15, and 21. The peptide was administered 15 minutes prior to intraplantar formalin injection. Following formalin injection, spontaneous pain behaviors were recorded every two minutes for one hour. In this study, an εPKC antagonist peptide from the V1 domain was used as a positive, comparative control. As noted above, the εV1-2 peptide, EVASLKPT (SEQ ID NO:6) has been described, for example, in U.S. Pat. No. 5,783,405 and by Dorn et al. (PNAS, […]:12798 (1999)).
Both the εV1-2 peptide and the γPKC peptide V5-3 (SEQ ID NO:4) were conjugated via terminal cysteine residues to a carrier peptide, Tat (SEQ ID NO:7), for administration. One group of animals was treated with the Tat carrier peptide alone as a control. Another group of animals received only saline as a control.
The results are shown in FIGS. 2A-2C, where average pain scores for rat pups treated with γPKC (closed squares), εPCK (open squares), the Tat carrier peptide alone (open triangles), or saline (open circles) are shown as a function of time, in minutes. The average pain score was determined by a time sampling method, where the animal's behavior was recorded every two minutes. A score of “1” was given if the animal was licking, shaking, or elevating the formalin-treated paw. The three pain scores over a six minute period of observation were summed into a single score, to give a maximum possible score of 3 for each animal for each six minute interval. The average pain score was determined from the individual scores of the animals in each treatment group. FIG. 2A corresponds to the average pain scores for 7 day old rat pups, where 1% formalin was administered to the paw 15 minutes post delivery of the peptide or control substance.
Rat pups (male and female, Sprague-Dawley) were randomly divided at selected days after birth (postnatal days 7, 15, and 21) into groups for treatments. Each group received a PKC V5-domain test peptide, a positive, comparative control peptide, a carrier peptide control, or a saline control. The V5-domain test peptide was a γPKC peptide identified herein as SEQ ID NO:4 and as the comparative control peptide was a V1 domain εPKC peptide identified herein as SEQ ID NO:6. Peptides were reversibly conjugated to a Tat-peptide carrier (SEQ ID NO:7) via a cysteine-cysteine bond at their N termini. The peptides were administered via direct lumbar puncture (intrathecal administration) at the indicated dose, typically a dose of 20 μM PKC peptide in 5 μL (7 day old pups) or 10 μL (15 and 21 day old pups) saline.
Fifteen minutes after administration of the peptides or the control substance, 1% formalin (7 day old pups) or 2.5% formalin (15 and 21 day old pups) was delivered intradermally to the paw. Spontaneous pain behaviors were recorded every two minutes for one hour following formalin injection. The time sampling method for behavioral observation was employed, in which the observer rapidly recorded the behavior of the animals every two minutes (Teng et al., Pain, 76:337 (1998). A score of “1” was given if the animal was licking, shaking, or elevating the hindpaw. A six minute period of observation provided a maximum pain score of “3” for each animal.

The subject of assay [4] is capsaicin-induced nociception. The assay can be described thus: Capsaicin-induced nociception, paw withdrawal latency (Example 2). In kind it is in vivo, rat (adult male Sprague-Dawley). As to conditions: 10 μM Tat-conjugated peptide intrathecal 15 min before 3% capsaicin, FIG. 3; for response to nociception (paw withdrawal latency): low rate heating. The protocol:
Example 2 describes another study in support of the invention, where a γPKC V5 domain peptide (SEQ ID NO:4) was used for pain management in the capsaicin pain model. As a positive, comparative control, a V1 εPKC peptide (SEQ ID NO:6) was used. The peptides were conjugated to a Tat carrier peptide (SEQ ID NO:7) and were administered intrathecally to test animals prior to application of capsaicin to a paw. […] minutes after capsaicin application, paw withdrawal latency was measured at regular intervals for 75 minutes. The results are shown in FIG. 3, for Tat-derived γPCK (closed squares), Tat-derived-εPCK (open squares), the Tat carrier peptide alone (open triangles), and for animals treated with saline (open circles).
Adult male Sprague-Dawley rats weighing between 200-250 g were lightly anaesthetized with urethane (800 mg/kg, i.p.). The dorsal surface of each animal was painted with India ink to ensure heat was applied evenly to the dorsal surface. Baseline measurements of all animals (n=10/test group) were taken for 45 minutes for both C-fibers (0.9° C./sec heating rate) and Aδ-fibers (6.5° C./sec heating rate). The test V5 peptide was derived from the V5 region of γPKC (SEQ ID NO:4) and was conjugated to a Tat-carrier peptide (SEQ ID NO:7). As a positive comparative control, a peptide from the V1 domain of εPKC (SEQ ID NO:6) was also conjugated to a Tat-carrier peptide (SEQ ID NO:7). The peptides were delivered intrathecally via direct lumbar puncture (10 μM peptide in 20 μL saline) 15 minutes prior to topical application of capsaicin to the left hind paw (100 μL of 3% capsaicin). Saline and the Tat-carrier peptide alone (SEQ ID NO:7) were also administered to two separate groups of control animals. A latency measurement was taken post peptide but prior to capsaicin application to control for direct peptide effect. Twenty minutes after the application of capsaicin, the ink was re-applied, and the dorsal surface of the hind paws was subjected to low rate heating for a maximum of 20 seconds. Foot withdrawal latencies were measured at 15 minute intervals.

The next assay relates to pain. As to conditions: reported in WO 00/01415; listed as εV1-2 peptide; cited from earlier work.
Another assay addresses T1, εPKC (Homo sapiens, UniProt Q02156).
T1 sequence (Q02156 1-737): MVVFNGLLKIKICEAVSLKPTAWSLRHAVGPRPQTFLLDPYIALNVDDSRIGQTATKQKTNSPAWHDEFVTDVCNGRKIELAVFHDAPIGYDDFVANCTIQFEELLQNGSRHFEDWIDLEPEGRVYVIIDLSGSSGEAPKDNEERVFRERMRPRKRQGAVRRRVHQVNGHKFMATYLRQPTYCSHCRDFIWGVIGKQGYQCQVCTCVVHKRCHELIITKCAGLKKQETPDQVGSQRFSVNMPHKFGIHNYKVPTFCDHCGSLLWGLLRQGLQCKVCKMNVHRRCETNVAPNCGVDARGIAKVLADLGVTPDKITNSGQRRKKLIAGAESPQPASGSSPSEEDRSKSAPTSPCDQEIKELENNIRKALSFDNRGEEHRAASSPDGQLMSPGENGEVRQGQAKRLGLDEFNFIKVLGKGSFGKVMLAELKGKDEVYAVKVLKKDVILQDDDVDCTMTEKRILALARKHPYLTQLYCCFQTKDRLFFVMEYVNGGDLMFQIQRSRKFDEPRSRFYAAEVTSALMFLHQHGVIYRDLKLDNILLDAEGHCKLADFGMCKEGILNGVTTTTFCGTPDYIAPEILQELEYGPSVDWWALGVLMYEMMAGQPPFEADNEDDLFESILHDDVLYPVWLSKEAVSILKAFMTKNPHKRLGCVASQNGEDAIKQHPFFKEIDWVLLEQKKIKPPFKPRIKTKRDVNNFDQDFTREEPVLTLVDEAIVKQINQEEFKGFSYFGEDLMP
The note with it: reported in the literature; listed as εV1-2 peptide; cited from earlier work.

The test system of assay [5] is formalin-induced spontaneous pain behaviors. The assay can be described thus: Dose response study in the formalin-induced pain model, rats at postnatal days 7, 15, 21. In kind it is in vivo, rat. From the text: In postnatal day 21 and older rats, intraplantar formalin produces a stereotypic biphasic behavioral pattern. Phase 1 is characterized by intense shaking, lifting and licking of the offending hindpaw produced by activation of peripheral nociceptors. Activation of descending inhibitory pathways follows, reducing spontaneous pain behaviors (quiescent phase). Quiescence is followed by a second phase, characterized by a revival of pain behaviors, and at least partially mediated by central mechanisms.
A dose response study on rats at postnatal days 7, 15, and 21 using the γPCK V5 peptide identified herein by SEQ ID NO:4. In this study, the average pain scores as a function of time were determined, as described above, using the formalin-induced pain model. The peptide was administered at dosages of 2 μM, 10 μM and 20 μM fifteen minutes […] formalin injection. The results are shown in FIGS. 4A-4C for rats at postnatal day 7 (FIG. 4A), postnatal day 15 (FIG. 4B) and postnatal day 21 (FIG. 4C), where the 2 μM γPKC dose is represented by inverted triangles, the 10 μM dose of γPKC is represented by diamonds, and the 20 μM γPKC dose by circles. The control groups received 10 μM of the Tat carrier peptide and are represented by triangles.

In assay [6] the test system is allodynia and/or hyperalgesia. As to conditions: neuropathy model; cited from earlier work.
Where [7] appears, read: 7 day old rat pups, 1% formalin to paw 15 min after intrathecal Tat-conjugated peptide, FIG. 2A.
Setting [8] is: 15 day old rat pups, 2.5% formalin 15 min after intrathecal Tat-conjugated peptide, FIG. 2B.
Where [9] appears, read: 21 day old rat pups, 2.5% formalin 15 min after intrathecal Tat-conjugated peptide, FIG. 2C.
Setting [10] is: 2, 10, 20 μM, postnatal days 7, 15, 21, FIGS. 4A-4C.

Take `CCCCCCCCCCCCC(=O)N1CCCCC1CNC(=O)C(N)CCCCN` (centres unmarked) [NPC15437]: in assay [1], the “allodynia and/or hyperalgesia induced by the inflammatory agents” value (“allodynia and/or hyperalgesia induced” below) is “reversal of the allodynia and/or hyperalgesia”.

On to `COc1ccc2c(c[n+](C)c3c4cc5c(cc4ccc23)OCO5)c1OC` [chelerythrine], for which the “allodynia and/or hyperalgesia induced” value in assay [2] is listed as “reversal of the allodynia and/or hyperalgesia”.

On to “EVASLKPT [SEQ ID NO:6, peptide derived from the V1 domain of εPKC, positive comparative control, reference compound]”, for which the “average pain score relative to control pups” value in assay [3] (setting [7]) is “provided a greater attenuation of formalin-induced nociception”; in assay [3] (setting [8]) it was “contribute to nociception relief”; in assay [3] (setting [9]), “contribute to nociception relief”. The “reducing the paw withdrawal latency” value in assay [4] is “about 50%”. Further, in assay [4], the “response to nociception (paw withdrawal latency)” value is given as “anti-hyperalgesic”. The pain result in the assay on pain was “reported to lessen pain; also recorded: ameliorate pain”. For the same compound, the “selective inhibition of εPKC” value with εPKC is given as “selective inhibitor of εPKC; also recorded: selectively inhibit PCKε action”.

Take “RLVLAS (peptide derived from the V5 domain of the gamma isozyme of PKC) [SEQ ID NO:4, peptide derived from the V5 domain of the γ isozyme of PKC]”: the figures for the “average pain score relative to control pups” value in assay [3] (setting [7]), in assay [3] (setting [8]) and in assay [3] (setting [9]) were “effective to lessen pain”, “effective to alleviate pain” and “provided a reduction in pain”, respectively. Further, the “duration of formalin-induced pain” value in assay [3] (summary of FIGS. 2A-2C) is “effectively shortened the duration”. The “formalin-induced spontaneous pain behaviors” value in assay [3] (summary of FIGS. 2A-2C, postnatal days 7, 15, 21) is listed as “attenuated formalin-induced spontaneous pain behaviors”. For the same compound, the “response to nociception (paw withdrawal latency)” value in assay [4] is given as “induced an analgesic effect, producing an increase of threshold in the initial time point”; in assay [4] (listed as γPKC V5 domain peptide), “effective to modulate the response to nociception”. Besides, the “phase 1 of formalin-induced spontaneous pain behaviors” value in assay [5] (setting [10]) is on record as “but not phase 1”. In addition, in assay [5] (setting [10]), the “phase 2 of formalin-induced spontaneous pain behaviors” value was “attenuated phase 2”. The “attenuation of phase 2 behaviors” value in assay [5] (7 day old rats, highest dose (20 μM)) is “mild anti-nociception”; in assay [5] (21 day old rats, all three doses (2, 10, 20 μM)), “more robust anti-nociception”. The “duration of phase 2 behaviors” value in assay [5] (15 day old rats) and in assay [5] (21 day old rats) was “shortened the duration of phase 2 behaviors” throughout.

In the case of calphostin, in assay [6], the “allodynia and/or hyperalgesia induced” value is given as “reversal of the allodynia and/or hyperalgesia”.
